Key:
[1] = Liquid, Closed cell (Static) method
[2] = wn = mass fraction of the nth substance listed; conditions: 101 kPa, Liquid, Capillary tube (Ostwald / Ubbelohde) method, w1 = 0.9
[3] = molar heat capacity at constant pressure; conditions: 101 kPa, Power-Compensation Calorimetry

O [water]
[1]
Conditions | vapor or sublimation pressure [kPa]
274.15 K | 0.671
276.15 K | 0.778
279.15 K | 0.956
282.15 K | 1.171
285.15 K | 1.428
288.15 K | 1.739
291.15 K | 2.103
294.15 K | 2.525
297.15 K | 3.035
300.15 K | 3.62
303.15 K | 4.299
304.45 K | 4.659
306.15 K | 5.104
308.55 K | 5.85
313.45 K | 7.631
318.15 K | 9.698
323.45 K | 12.68
328.65 K | 16.35
333.15 K | 20.22
337.45 K | 24.61
345.65 K | 35.27
353.85 K | 49.37
364.35 K | 74.26
372.15 K | 99.51

CCCCn1cc[n+](C)c1.[Br-] [1-butyl-3-methylimidazolium bromide] + O
[2]
Conditions | kinematic viscosity [m2/s]
313.15 K | 2.21e-05
323.15 K | 1.56e-05
333.15 K | 1.14e-05
343.15 K | 8.58e-06
353.15 K | 6.65e-06
363.15 K | 5.34e-06
373.15 K | 4.34e-06

CCCCn1cc[n+](C)c1.[Br-] [1-butyl-3-methylimidazolium bromide]
molar heat capacity at constant pressure [J/K/mol], [3]
Conditions | 283.15 K | 293.15 K | 303.15 K | 313.15 K | 323.15 K | 333.15 K | 343.15 K | 353.15 K | 363.15 K | 373.15 K
Crystal | 265.14 | 269.52 | 276.09 | 289.24 | 308.96 | 361.55 | 705.57 | – | – | –
Liquid | – | – | – | – | – | – | – | 352.79 | 359.36 | 363.74

— the NIST ThermoML archive (doi:10.1016/j.fluid.2017.07.024)
